The source of these data is patent US20180186742A1, “PICOLINAMIDES AS FUNGICIDES” (Dow AgroSciences LLC, priority 2017, published 2018).

Assay type in all cases: in vivo
One assay has as its system Zymoseptoria tritici. Put plainly: Leaf blotch of wheat (SEPTTR), disease control on wheat seedlings. As to conditions: low volume application at 121.5 g/H. The essentials:
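Yuma wheat seedlings with the first leaf fully emerged were sprayed to run-off with compound in acetone plus nine volumes of water containing 110 ppm Triton X-100; track-spray tests used EC formulations with 0.1% Trycol 5941. Z. tritici inoculation came before or after treatment, followed by 100% RH dew periods and a 20 °C greenhouse. Percent control was calculated from severity versus untreated plants.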

For a further assay, the system named is Puccinia triticina. Put plainly: Wheat brown rust (PUCCRT), disease control on wheat seedlings. As to conditions: low volume application at 121.5 g/H. The essentials: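 Compounds in acetone, diluted with nine volumes of water containing 110 ppm Triton X-100, sprayed to run-off on first-leaf Yuma wheat seedlings; track-spray tests used EC formulations with 0.1% Trycol 5941. Puccinia triticina spores applied before or after treatment. Overnight dark dew room at 22° C, 100% humidity, then greenhouse at 24° C.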

The test system of the next assay is Phakopsora pachyrhizi. Put plainly: Asian soybean rust (PHAKPA), disease control on soybean seedlings. As to conditions: High volume application at 25 ppm. An outline of the steps:
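Two-week-old Williams 82 soybean seedlings were sprayed to run-off with compound in acetone/water (1:9) containing 0.011% Tween 20. Inoculation was 3 days before (curative) or 1 day after (protectant) treatment, followed by 24 h dark dew at 22 °C, 100% RH, then 23 °C; disease severity scored on sprayed leaves.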

Setting [1] is: 24 h, 1 Day Protectant, read-out: SEPTTR disease control, 1DP, LV activity.
Setting [2] is: 72 h, 3 Day Curative, read-out: SEPTTR disease control, 3DC, LV activity.
Where [3] appears, read: 24 h, 1 Day Protectant, read-out: PUCCRT disease control, 1DP, LV activity.
Where [4] appears, read: 72 h, 3 Day Curative, read-out: PUCCRT disease control, 3DC, LV activity.
Setting [5] is: 24 h, 1 Day Protectant, read-out: PHAKPA 1DP disease control rating.
Setting [6] is: 72 h, 3 Day Curative, read-out: PHAKPA 3DC disease control rating.

Like-named read-outs stand apart in the source and are kept apart here.

`CCC(C)[C@H](c1ccc(F)cc1OC)[C@H](C)OC(=O)[C@H](C)NC(=O)c1nccc(OC)c1OC(C)=O` (stereo partly drawn) [Compound 225]: the pest or weed control at 121.5 g/ha in the assay on Zymoseptoria tritici (setting [1]) was > 80%; with Zymoseptoria tritici (setting [2]), > 80%; in the assay with Puccinia triticina (setting [3]), > 80%; in the assay with Puccinia triticina (setting [4]), < 80%. Also, the pest or weed control at 25 ppm in the assay with Phakopsora pachyrhizi (setting [5]) is > 80%; in the assay on Phakopsora pachyrhizi (setting [6]) it was < 80%.

Consider `COc1cc(F)ccc1[C@@H](C1CCC1)[C@H](C)OC(=O)[C@H](C)NC(=O)c1nccc(OC)c1OC(C)=O` [Compound 226], for which the pest or weed control at 121.5 g/ha in the assay with Zymoseptoria tritici (setting [1]), in the assay with Zymoseptoria tritici (setting [2]), in the assay with Puccinia triticina (setting [3]) and with Puccinia triticina (setting [4]) was < 80% throughout. Moreover, the results for the pest or weed control at 25 ppm in the assay on Phakopsora pachyrhizi (setting [5]) and with Phakopsora pachyrhizi (setting [6]) were < 80% and < 0%, respectively.

Regarding `COc1cc(F)ccc1[C@H](C1CCCCC1)[C@H](C)OC(=O)[C@H](C)NC(=O)c1nccc(OC)c1OC(C)=O` [Compound 227], the pest or weed control at 121.5 g/ha in the assay with Zymoseptoria tritici (setting [1]), with Zymoseptoria tritici (setting [2]), in the assay on Puccinia triticina (setting [3]) and with Puccinia triticina (setting [4]) was > 80% each time. Further, the pest or weed control at 25 ppm in the assay with Phakopsora pachyrhizi (setting [5]) was > 80%; in the assay with Phakopsora pachyrhizi (setting [6]) it was < 80%.

`COc1cc(F)ccc1[C@H](C1CCCC1)[C@H](C)OC(=O)[C@H](C)NC(=O)c1nccc(OC)c1OC(C)=O` [Compound 228]: the pest or weed control at 121.5 g/ha was > 80% in the assay with Zymoseptoria tritici (setting [1]), < 80% with Zymoseptoria tritici (setting [2]), > 80% in the assay on Puccinia triticina (setting [3]) and < 80% in the assay with Puccinia triticina (setting [4]). Further, the pest or weed control at 25 ppm was > 80% in the assay on Phakopsora pachyrhizi (setting [5]) and < 80% with Phakopsora pachyrhizi (setting [6]).

Turning to `CCC(CC)[C@@H](c1ccc(F)cc1OC)[C@H](C)OC(=O)[C@H](C)NC(=O)c1nccc(OC)c1OC(C)=O` [Compound 229], the pest or weed control at 121.5 g/ha in the assay with Zymoseptoria tritici (setting [1]) was > 80%; in the assay on Zymoseptoria tritici (setting [2]) it was > 80%; in the assay with Puccinia triticina (setting [3]) it was > 80%; with Puccinia triticina (setting [4]), < 80%. The pest or weed control at 25 ppm in the assay with Phakopsora pachyrhizi (setting [5]) is > 80%; in the assay on Phakopsora pachyrhizi (setting [6]), < 80%.

Take `CCC(C)[C@@H](c1ccc(F)cc1OC)[C@H](C)OC(=O)[C@H](C)NC(=O)c1nccc(OC)c1OC(C)=O` (stereo partly drawn) [Compound 230]: the pest or weed control at 121.5 g/ha in the assay with Zymoseptoria tritici (setting [1]) was > 80%; with Zymoseptoria tritici (setting [2]), < 80%; in the assay on Puccinia triticina (setting [3]), > 80%; in the assay with Puccinia triticina (setting [4]), > 80%. Further, the figures for the pest or weed control at 25 ppm in the assay with Phakopsora pachyrhizi (setting [5]) and with Phakopsora pachyrhizi (setting [6]) were > 80% and < 80%, respectively.

As to `COc1cc(F)ccc1[C@H](C1CCC1)[C@H](C)OC(=O)[C@H](C)NC(=O)c1nccc(OC)c1OC(C)=O` [Compound 231], the pest or weed control at 121.5 g/ha with Zymoseptoria tritici (setting [1]), in the assay with Zymoseptoria tritici (setting [2]), in the assay with Puccinia triticina (setting [3]) and in the assay with Puccinia triticina (setting [4]) was < 80% in each case. For the same compound, the results for the pest or weed control at 25 ppm in the assay with Phakopsora pachyrhizi (setting [5]) and with Phakopsora pachyrhizi (setting [6]) were > 80% and < 80%, respectively.

For the compound `COc1cc(F)ccc1[C@H](C(C)C)[C@H](C)OC(=O)[C@H](C)NC(=O)c1nccc(OC)c1OC(C)=O` [Compound 232], the pest or weed control at 121.5 g/ha in the assay on Zymoseptoria tritici (setting [1]) was > 80%; with Zymoseptoria tritici (setting [2]) it was < 80%; with Puccinia triticina (setting [3]), > 80%; in the assay on Puccinia triticina (setting [4]) it was > 80%. In addition, the pest or weed control at 25 ppm in the assay with Phakopsora pachyrhizi (setting [5]) and in the assay on Phakopsora pachyrhizi (setting [6]) was > 80% throughout.

In the case of `COc1cc(F)ccc1[C@@H](C1CCCCC1)[C@H](C)OC(=O)[C@H](C)NC(=O)c1nccc(OC)c1OCOC(C)=O` [Compound 233], the pest or weed control at 121.5 g/ha in the assay on Zymoseptoria tritici (setting [1]) was > 80%; in the assay with Zymoseptoria tritici (setting [2]), > 80%; in the assay with Puccinia triticina (setting [3]), < 80%; with Puccinia triticina (setting [4]) it was < 80%. The pest or weed control at 25 ppm in the assay on Phakopsora pachyrhizi (setting [5]) and with Phakopsora pachyrhizi (setting [6]) was < 80% in each case.
